Assay results reported in patent publication US11866509B2, “Humanized antibodies against CEACAM1” (Famewave Ltd., priority 2014, dated 2024).

Tests used:
[1] = tested on: CEACAM1 expression on sk-mel-2 cells; assay: CEACAM1 extracellular staining by FACS, W.T. B-Raf mutated N-Ras cells; assay type: cell-based, human; conditions: 1 μM
Experimental: Volume equivalents of DMSO (vehicle) were used as control. […] Cells were then analyzed for CEACAM1 protein expression by FACS as described above. Vemurafenib-resistant cell lines were generated by gradual increase of the inhibitor's concentration in culture, up to 0.32 μM. […] Cells were then tested for CEACAM1 expression using MRG1 (murine antibody to human CEACAM1) in flow cytometry as described above. Total RNA was extracted with TRIZOL and cDNA was generated with a reverse transcriptase, according to routine protocols.

[2] = tested on: B-Raf V600E cell samples (526mel, 624mel); assay: T-cell induced killing of melanoma cells, LDH release; assay type: cell-based, human; conditions: 1 μM, effector-target ratio 5:1, overnight
Experimental: More specifically, whereas only 50% ( 3/6) of the melanoma cells having a wild type B-Raf, i.e. a valine in position 600, expressed detectable levels of CEACAM1 (Ct of 36 and less), 100% (18/18) of the melanoma cells having a mutated B-Raf, i.e. a glutamic acid in position 600, expressed detectable levels of CEACAM1 (Ct of 36 and less). • B. CEACAM1 extracellular staining of cancer cells treated with B-Raf or MEK inhibitors. […] At each time point, CEACAM1 expression on the cells was determined by FACS. Volume equivalents of DMSO (vehicle) were used as control. […] Inhibitor-resistant cancer cells show increase in CEACAM1 expression and restored activity of MAPK pathway. Two vemurafenib-sensitive B-Raf V600E cell samples (526mel, 624mel) and vemurafenib-resistant cell lines derived therefrom were incubated for 2 days with 1 μM vemurafenib. Cells were then analyzed for CEACAM1 protein expression by FACS as described above. […] MAPK activity was measured in vemurafenib-sensitive and vemurafenib-resistant B-Raf V600E (624mel) cell samples by immunoblotting for phosphorylated ERK1/2 (pERK, Thr202/Tyr204), total ERK1/2 and actin after 24 hours of exposure to 160 nM vemurafenib. […] Initial vemurafenib concentration was 0.01 of the determined IC50 (0.64 nM). […] Cell killing was determined by LDH release. […]

CEACAM1 = target: T1, CEACAM1 (Homo sapiens, UniProt P13688); conditions: WO 2010/125571, WO 2013/054331; cited from earlier work
T1 sequence (P13688 35-526): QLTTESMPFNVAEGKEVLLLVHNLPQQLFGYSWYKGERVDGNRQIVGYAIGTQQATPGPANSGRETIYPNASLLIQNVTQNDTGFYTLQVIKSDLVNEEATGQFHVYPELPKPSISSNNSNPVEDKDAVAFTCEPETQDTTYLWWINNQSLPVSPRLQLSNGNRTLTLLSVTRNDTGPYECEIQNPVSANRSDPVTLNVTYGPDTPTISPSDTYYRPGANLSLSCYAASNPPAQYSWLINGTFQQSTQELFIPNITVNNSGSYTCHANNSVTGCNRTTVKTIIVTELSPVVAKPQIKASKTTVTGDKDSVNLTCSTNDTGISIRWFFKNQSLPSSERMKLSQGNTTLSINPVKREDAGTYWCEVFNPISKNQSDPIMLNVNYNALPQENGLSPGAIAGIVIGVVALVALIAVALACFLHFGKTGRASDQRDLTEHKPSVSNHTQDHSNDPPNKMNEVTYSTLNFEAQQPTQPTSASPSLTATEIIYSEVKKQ

CCCS(=O)(=O)Nc1ccc(F)c(C(=O)c2c[nH]c3ncc(-c4ccc(Cl)cc4)cc23)c1F [vemurafenib]
effect on CEACAM1 expression levels [1]: no effect | sensitization to cytotoxic T cells [2]: significantly sensitizes melanoma cells to cytotoxic T cells

B1: CM-10: chimeric anti-CEACAM-1 antibody disclosed in WO 2013/054331 (antibody, V domains shown)
VH: QVQLQQSGAELVRPGTSVKVSCKASGYAFTNNLIEWVKQRPGQGLEWIGVINPGSGDTNYNEKFKGKATLTADKSSNTAYMQLSSLTSDDSAVYFCARGDYYGGFAVDYWGQGTSVTVSS
VL: DIQMTQTTSSLSASLGDRVTISCRTSQDIGNYLNWYQQKPDGTVKLLIYYTSRLHSGVPSRFSGSGSGTDYSLTISNLEQEDIATYFCQQGKSLPRTFGGGTKLEIK
selectivity to CEACAM1 (CEACAM1): highly selective to CEACAM1
